Key:
human GluR4B = target: T1, human GluR4B (Homo sapiens, UniProt P48058); experiment: Fluo3-AM fluorescence test of glutamate-induced response in HEK cells, relative to 100 μM cyclothiazide; assay type: cell-based; conditions: human GluR4B receptor expressed in HEK 293 cells
T1 construct: expressed in transfected cells; host or cells: HEK (HEK 293)
Description: 96 well plates containing confluent monolayers of HEK cells stably expressing human GluR4B (obtained as described in European Patent Application Publication Number EP-A1–583917) were prepared. The tissue culture medium in the wells was then discarded, and the wells were each washed once with 200 μl of 5NaCa buffer (glucose, 10 mM, sodium chloride, 138 mM, magnesium chloride, 1 mM, potassium chloride, 5 mM, calcium chloride, 5 mM, N-[2-hydroxyethyl]-piperazine-N-[2-ethanesulfonic acid], 10 mM, to pH 7.1 to 7.3). The plates were then incubated for 60 minutes in the dark with 20 μM Fluo3-AM dye (obtained from Molecular Probes Inc, Eugene, Oreg.) in 5 NaCa buffer in each well. After the incubation, each well was washed once with 100 μl 5NaCa buffer, 200 μl of 5NaCa buffer was added and the plates were incubated for 30 minutes. […]
Each test was then performed as follows. […] A first reading was then taken using a FLUOROSKAN II fluorimeter (Obtained from Labsystems, Needham Heights, Mass., USA, a Division of Life Sciences International Plc). […] A second reading was then taken using the fluorimeter. The plate was then left in the fluorimeter for 5 minutes, and a third reading was taken. 15 μl of 400 μM glutamate solution was then added to each well (final glutamate concentration 100 μM), and a fourth reading was taken immediately. Approximately three minutes later, a fifth reading was taken. […]

T1 sequence (P48058 21-902): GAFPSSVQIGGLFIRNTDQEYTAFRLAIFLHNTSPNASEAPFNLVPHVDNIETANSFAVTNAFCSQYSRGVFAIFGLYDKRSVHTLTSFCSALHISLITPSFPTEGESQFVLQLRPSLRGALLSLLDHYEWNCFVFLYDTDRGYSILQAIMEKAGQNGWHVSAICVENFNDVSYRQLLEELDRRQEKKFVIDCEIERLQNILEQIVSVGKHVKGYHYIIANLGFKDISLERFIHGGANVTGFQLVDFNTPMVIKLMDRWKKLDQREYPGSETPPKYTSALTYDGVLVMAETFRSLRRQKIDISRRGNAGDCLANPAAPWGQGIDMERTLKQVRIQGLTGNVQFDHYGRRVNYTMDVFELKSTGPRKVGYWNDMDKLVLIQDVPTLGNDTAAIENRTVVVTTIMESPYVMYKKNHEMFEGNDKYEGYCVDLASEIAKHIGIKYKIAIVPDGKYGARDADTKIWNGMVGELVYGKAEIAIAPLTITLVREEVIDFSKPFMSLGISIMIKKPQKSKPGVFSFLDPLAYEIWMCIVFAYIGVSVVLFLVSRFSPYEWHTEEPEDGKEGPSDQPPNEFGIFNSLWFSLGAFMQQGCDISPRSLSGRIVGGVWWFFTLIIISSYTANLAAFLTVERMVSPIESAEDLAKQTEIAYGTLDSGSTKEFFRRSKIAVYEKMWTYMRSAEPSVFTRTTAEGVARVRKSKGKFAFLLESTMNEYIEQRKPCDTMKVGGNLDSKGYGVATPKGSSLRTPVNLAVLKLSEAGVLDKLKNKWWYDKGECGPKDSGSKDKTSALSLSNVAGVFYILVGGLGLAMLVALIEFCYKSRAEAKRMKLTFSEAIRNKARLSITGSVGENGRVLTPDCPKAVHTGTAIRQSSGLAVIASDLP

Row | SMILES | melting point | potentiation of agonist-induced excitability of human GluR4B receptor (human GluR4B)
1 | CC(C)(C)c1ccc(C2(CNS(=O)(=O)C(F)(F)F)CC2)cc1 | 82 to 84 °C | 
2 | CC(C)S(=O)(=O)NCC1(c2ccc(C(C)(C)C)cc2)CC1 | 87 to 89.5 °C | 
3 | NS(=O)(=O)c1cc2c(cc1Cl)NC(C1CC3C=CC1C3)NS2(=O)=O (stereo not drawn) [cyclothiazide] |  | potentiate
